Assay results as given in US20030161893A1, “PTPase inhibitors and methods of using the same” (priority 2001, published 2003).

Key:
[1] = system: Baf3 cells; test: Induction of cellular protein tyrosine phosphorylation in Baf3 cells (Western blotting); assay type: cell-based, murine; conditions: Baf3 deprived of IL-3; proteins of about 55 and 32 kDa
Description: (§1) For induction of cellular protein phosphorylation by sodium stibogluconate or pervanadate, Baf3 cells were incubated in 0.1% FCS-RPMI 1640 medium at 37° C. for 16 hours. The cells were then washed twice in RPMI 1640 medium and incubated with sodium stibogluconate or pervanandate (0.1 mM) for various times prior to termination by lysing cells in cold lysis buffer (50 mM Tris, pH 7.4; 150 mM NaCl; 0.2 mM Na3VO4; 20 mm NaF; 1% Nonidet P-40; 2 mM PMSF; 20 μg/ml of Aprotinin and 1 mM of sodium molybdic acid). To determine the effect of sodium stibogluconate or potassium antimonyl tartrate on IL-3-induced Jak/Stat phosphorylation, Baf3 cells were deprived of the growth factor for 16 hours in 0.1% FCS RPMI 1640 medium and then incubated with or without sodium stibogluconate or potassium antimonyl tartrate for 10 minutes. IL-3 was next added to the cell suspension and incubated for various times. The Cells were then harvested and lysed in cold lysis buffer at 4° C. for 45 minutes. Total cell lysates (TCL) were separated in SDS-PAGE gels, blotted onto nitrocellulose membrane (Schleicher & Schuell), probed with specific antibodies and detected using an enhanced chemiluminescence kit (ECL, Amersham, Arlington Heights, Ill.).

[2] = system: Baf3 cells; test: Baf3 cell proliferation assay; assay type: cell-based, murine
Description: The murine hematopoietic cell line Baf3 was maintained in RPMI 1640 medium supplemented with 10% fetal calf serum (FCS) and murine IL-3 (20 units/ml) as described previously in Damen et al., J. Biol. Chem. 270, 23402 (1995). Human myeloid cell line TF-1 was maintained in RPMI 1640 supplemented with 10% FCS and 40 ng/ml of recombinant human GM-CSF as described previously in Thomassen et al., Clin. Immunol. 95, 85 (2000). For cell proliferation assays, cells were washed in 10% FCS medium twice, resuspended in 10% FCS medium, incubated at 37° C. for 16 hours, and then cultured at 37° C. in 10% FCS medium containing various amounts of cytokines, sodium stibogluconate, or potassium antimonyl tartrate for 3-6 days as indicated. The cell numbers in proliferation assays were determined by an MTT assay or by microscopic cell counting as indicated.

[3] = system: NB4 cells; test: NB4 cell growth (MTT), cell cycle and Annexin V; assay type: cell-based, human
Description: The NB4 cell line (Lanotte et al., Blood 77, 1080 (1991)) was a gift from Dr. Dan Lindner of the Cleveland Clinic Foundation. […] and U937 cell lines were purchased from American Type Culture Collection (Rockville, Md.). These human […] cell lines were maintained in RPMI 1640 medium supplemented with 10% fetal calf serum (FCS). For cell proliferation assays, cells were cultured at 37° C. in 10% FCS medium containing various amounts of sodium stibogluconate for 6 days. The cell numbers in the cultures were determined by an MTT assay as described previously in Mosmann, J. Imunol. Methods 65, 55 (1983).
The cell cycle was analyzed by flow cytometry after 3 days of culture of NB4 cells in the absence or presence of sodium stibogluconate (250 μg/ml) or ATRA (1 μM). Briefly, the cells were fixed in cold ethanol and incubated for 30 minutes at 4° C. in the dark with a solution of […] propidium iodide, 1 mg/ml RNase and 0.1% NP-40. Analysis was performed immediately after staining using the CELLFIT program (Becton Dickinson, Mountain View, Calif.).
Annexin V staining of exposed membrane phospholipid phosphatidylserine (PS) was done using the Annexin V assay kit (Pharmingen, San Diego, Calif.). Briefly, NB4 cells were cultured in the 10% FCS RPMI 1640 medium in the absence or presence of sodium stibogluconate (250 μg/ml) or ATRA (1 μM) for 3 days. Cells were then washed in PBS twice and stained in binding buffer (10 mM Hepes, pH 7.4; 140 mM NaCl; 2.5 mM CaCl2) containing Annexin V-FITC and propidium iodide for 15 min. The reaction was stopped by adding 10 volumes of binding buffer and analyzed by FACS (Becton Dickinson Facsvantage).

[4] = Tolerability in nude mice (viability, body weight, organs); assay type: in vivo
Description: Nude mice bearing WM9 or DU145 xenografts were treated with IFN-alpha (500,000 U, s.c., daily), sodium stibogluconate (12 mg Sb, s.c., daily) or both. […] The dosage of sodium stibogluconate corresponds to approximately 440 mg Sb/kg body weight (average mouse body weight 27 g), substantially higher than the standard therapeutic dose of 20 mg Sb/kg and the high dose (143 mg Sb/kg) that was clinically used by accident without serious toxicity. This dose of sodium stibogluconate was based on a previous observation in a pilot study that mice could tolerate daily dose of 20 mg Sb (approximately 700-800 mg Sb/kg). An observation that the effect of sodium stibogluconate in inhibiting the growth of the cancer cell lines in vitro was dose-dependent with complete or near complete killing of the cancer cells at […] (or 100 ug Sb/kg) was also considered. In light of the relatively rapid rate of clearance of the drug in vivo, 440 mg Sb/kg dosage was used to ensure the detection of the effectiveness of the drug for this initial study.
As discussed above, the dosage of sodium stibogluconate used for the treatment of nude mice was 12 mg Sb/mouse, s.c., daily (or approximately 440 mg/kg body weight). This dosage is much higher than the standard dose for leishmaniasis (20 mg Sb/kg, daily). As an initial step to assess the toxicity of such a high dosage of sodium stibogluconate in nude mice, the effect of sodium stibogluconate on the viability and body weights of WM9 xenografts nude mice during the 25 day period of the study was determined.
Athymic nude mice (nu/nu, NCR), 4 weeks old (Taconic), were inoculated (s.c.) in the flanks with DU145 cells (3×10^6 cells/site) on day 0. Starting on day 2, the mice were subjected to no treatment (Control) or treatment with sodium stibogluconate (12 mg, s.c., daily, […], at the hip area). The dosage of sodium stibogluconate used in the study was similar to the effective daily dose of sodium stibogluconate for the treatment of murine leishmaniasis (Murray, et al. 1988). Tumor volume was measured and calculated using the formula for a prolate spheroid (V=4/3 7 a^2b) (Lindner, et al. 1997). Hematoxylin+Eosin (H.E.) stained tissue sections of internal organs and tumor inoculation sites tissues of the mice were prepared and subjected microscopic evaluation.

[5] = system: Jak2/Stat5; test: IL-3-induced Jak2/Stat5 tyrosine phosphorylation in Baf3 cells; assay type: cell-based, murine
Description: as §1

## O.O.O.O.O.O.O.O.O.O=C([O-])[C@@H]1[O][Sb]2([O-])([O][Sb]34([OH])[O][C@H]([C@H](O)CO)[C@H]([O]3)[C@H](C(=O)[O-])[O]4)[O][C@H]([C@H](O)CO)[C@@H]1[O]2.[Na+].[Na+].[Na+] [sodium stibogluconate]
[1]
  cellular protein tyrosine phosphorylation: induced protein tyrosine phosphorylation
[2]; 1,000 μg/ml
  IL-3-induced Baf3 growth at high concentration: suppressed IL-3-induced Baf3 growth
[2]; day 3 culture
  Baf3 proliferation/viability in the absence of IL-3: failed to support cell proliferation or maintain cell viability
[3]; 250 μg/ml, 6 days
  Annexin V staining of NB4 cells: stained positive by Annexin V
[3]; 12.5-400 μg/ml, MTT
  proliferation of NB4 cells: markedly inhibited
[3]; 3 days, sodium stibogluconate 250 μg/ml, ATRA 1 μM
  cell cycle of NB4 cells: significant increase of cells at S phase
[4]; 12 mg Sb daily (440 mg Sb/kg daily)
  tolerability at the dosage used: well tolerated with no serious side effects
[4]; 440 mg/kg daily
  survival of DU145 tumor mice: survived until the end of the study
[4]; 440 mg/kg daily, DU145 tumor mice
  histology of major organs: unremarkable
[4]; approximately 700-800 mg Sb/kg
  tolerated daily dose in mice (pilot study): 20 mg Sb
[4]; day 25, 4 mice/group
  survival of WM9 xenograft nude mice: survived until the end of the study
[5]; IL-3 stimulated, densitometry
  phosphotyrosine levels of Jak2 and Stat5 versus cells without drug: about twice
[5]; no IL-3, 37° C. for 16 hours
  Jak2/Stat5 tyrosine phosphorylation by drug alone: failed to induce Jak2/Stat5 tyrosine phosphorylation
